Experimental data taken from article PMC6286348, “Inhibitor binding mode and allosteric regulation of Na^+-glucose symporters” (Nature Communications, 2018).
Residue numbers refer to the chain shown, from its start.

Experiments:
[1] = molecular target: T1, hSGLT1 wild-type (Homo sapiens, UniProt P13866); experiment: SGLT current measurement (two electrode voltage clamp) in oocytes, hSGLT1 wild-type; assay type: cell-based; conditions: inhibition of αMDG currents (100 mM NaCl) or capacitive currents, 22 °C
T1 construct: expressed in transfected cells; host or cells: Xenopus laevis oocytes injected with cRNA
T1 sequence (P13866 1-664): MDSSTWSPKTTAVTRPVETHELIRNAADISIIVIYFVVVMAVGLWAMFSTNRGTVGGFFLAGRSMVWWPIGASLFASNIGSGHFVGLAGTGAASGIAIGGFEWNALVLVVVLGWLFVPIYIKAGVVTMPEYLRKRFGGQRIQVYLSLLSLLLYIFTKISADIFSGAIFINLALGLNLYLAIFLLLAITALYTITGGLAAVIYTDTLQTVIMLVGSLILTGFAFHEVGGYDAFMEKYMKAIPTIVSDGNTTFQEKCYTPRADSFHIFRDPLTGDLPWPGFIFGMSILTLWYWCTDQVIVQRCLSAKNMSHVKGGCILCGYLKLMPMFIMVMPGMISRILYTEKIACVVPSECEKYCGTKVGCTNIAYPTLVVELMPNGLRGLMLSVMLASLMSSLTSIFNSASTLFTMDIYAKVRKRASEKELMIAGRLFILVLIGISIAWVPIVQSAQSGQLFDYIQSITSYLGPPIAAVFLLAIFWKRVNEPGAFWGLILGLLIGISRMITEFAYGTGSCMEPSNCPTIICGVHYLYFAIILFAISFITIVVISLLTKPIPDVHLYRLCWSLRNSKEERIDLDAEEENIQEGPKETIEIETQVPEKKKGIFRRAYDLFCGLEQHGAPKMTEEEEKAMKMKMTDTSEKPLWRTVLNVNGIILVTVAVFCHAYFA
Method: (§1) Xenopus laevis (Nasco) oocytes (V–VI) were prepared as previously described[20] and injected with 50 nl of cRNA (1 μg/μl). […] Briefly, oocytes were incubated for 30 min in the presence of 50 μM αMDG (5 μM [^14C]αMDG) in a buffer containing (in mM) 100 NaCl, 2 KCl, 1 MgCl2, 1 CaCl2, and 10 N-(2-hydroxyethyl)piperazine-N′-(2-ethanesulfonic acid) (HEPES)/Tris (pH 7.5). After incubation, oocytes were rinsed thoroughly with ice-cold buffer containing (mM) 100 choline Cl^–, 2 KCl, 1 MgCl2, 1 CaCl2, and 10 HEPES/Tris (pH 7.5), individually lysed with 5% sodium dodecyl sulfate, and assayed for radioactivity.
(§2) Injected oocytes were incubated at 18 °C, and after 3–4 days, two electrode voltage clamp experiments were performed as previously described. Briefly, SGLT inward glucose currents were measured as a function of the external Na^+ (0–100 mM NaCl), sugar (0–100 mM αMDG), and inhibitors (0.001–100 μM). Steady-state and hSGLT1 capacitive currents were recorded using voltage steps from a holding voltage, Vh of −60 mV, to voltages in the range of −180 to +50 mV in 20 mV increments. The apparent affinity of αMDG, K0.5, was estimated from plots of the inward current as a function of the external αMDG concentration. […] The Na^+-to-αMDG stoichiometry was determined from the reversal potential measurements using the Gibbs free energy as previously described. […]

[2] = molecular target: T2, hSGLT1 T395A (Homo sapiens, UniProt P13866, T395A); experiment: SGLT current measurement in oocytes, hSGLT1 T395A; assay type: cell-based; conditions: effect on αMDG currents in 30 mM αMDG, 22 °C
T2 construct: expressed in transfected cells; host or cells: Xenopus laevis oocytes injected with cRNA
T2 sequence (P13866 1-664 T395A): T1 sequence (P13866 1-664) with T395A
Method: as §1, §2

[3] = molecular target: T3, hSGLT2 A395T (Homo sapiens, UniProt P31639, A395T); experiment: cell-based; conditions: poor expression; n = 3 oocytes (n = 2 for dapa-aglycon)
T3 construct: expressed in transfected cells; host or cells: Xenopus laevis oocytes injected with hSGLT2 A395T cRNA and MAP17 cRNA
T3 sequence (P31639 whole entry A395T, one chain of several): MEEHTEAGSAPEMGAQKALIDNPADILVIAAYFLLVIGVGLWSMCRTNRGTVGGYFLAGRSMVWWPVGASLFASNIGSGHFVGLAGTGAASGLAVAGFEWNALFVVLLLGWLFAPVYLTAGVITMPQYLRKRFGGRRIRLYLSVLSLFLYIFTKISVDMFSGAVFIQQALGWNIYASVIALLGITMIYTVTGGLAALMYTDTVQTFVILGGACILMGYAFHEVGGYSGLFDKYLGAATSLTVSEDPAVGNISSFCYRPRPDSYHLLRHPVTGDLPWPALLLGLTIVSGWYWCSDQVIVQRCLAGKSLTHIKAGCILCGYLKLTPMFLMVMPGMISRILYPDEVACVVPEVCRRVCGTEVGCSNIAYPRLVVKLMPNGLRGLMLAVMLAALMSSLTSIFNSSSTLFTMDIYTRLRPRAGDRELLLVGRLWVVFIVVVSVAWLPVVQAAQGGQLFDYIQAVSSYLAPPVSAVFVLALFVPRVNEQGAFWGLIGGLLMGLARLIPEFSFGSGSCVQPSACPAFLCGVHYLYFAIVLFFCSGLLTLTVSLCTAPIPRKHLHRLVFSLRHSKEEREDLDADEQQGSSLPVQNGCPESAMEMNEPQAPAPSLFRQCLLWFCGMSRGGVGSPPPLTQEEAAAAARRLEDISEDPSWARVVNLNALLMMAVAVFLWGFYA
Method: as §1
(§3) Injected oocytes were incubated at 18 °C, and after 3–4 days, two electrode voltage clamp experiments were performed as previously described. Briefly, SGLT inward glucose currents were measured as a function of the external Na^+ (0–100 mM NaCl), sugar (0–100 mM αMDG), and inhibitors (0.001–100 μM). Steady-state and hSGLT1 capacitive currents were recorded using voltage steps from a holding voltage, Vh of −60 mV, to voltages in the range of −180 to +50 mV in 20 mV increments. The apparent affinity of αMDG, K0.5, was estimated from plots of the inward current as a function of the external αMDG concentration. Under our experimental conditions, K0.5 is a close approximation of the αMDG binding constant to the Na^+-bound outward conformation of SGLT. The apparent affinity for Na^+, K0.5, was estimated from plots of the αMDG inward current as a function of external Na^+ concentration. For hSGLT1 the interpretation of K0.5 is more complex owing to the presence of two Na^+ binding sites. In this case, the K0.5 is a lumped coefficient for Na^+ binding to the two sites in the outward-facing hSGLT1 conformation. […] The Na^+-to-αMDG stoichiometry was determined from the reversal potential measurements using the Gibbs free energy as previously described. The stoichiometry determinations were reinforced by estimates of αMDG and Na^+ Hill coefficients, and in some cases, by measurement of ^22Na and [^14C]αMDG uptakes under voltage clamp, [21].

[4] = molecular target: T4, hSGLT2 wild-type (Homo sapiens, UniProt P31639); experiment: SGLT current measurement in oocytes, hSGLT2 wild-type (MAP17 co-injected); assay type: cell-based; design: expressed in transfected cells; host or cells: Xenopus laevis oocytes injected with hSGLT2 cRNA and MAP17 cRNA; conditions: 22 °C
T4 sequence (P31639 1-672): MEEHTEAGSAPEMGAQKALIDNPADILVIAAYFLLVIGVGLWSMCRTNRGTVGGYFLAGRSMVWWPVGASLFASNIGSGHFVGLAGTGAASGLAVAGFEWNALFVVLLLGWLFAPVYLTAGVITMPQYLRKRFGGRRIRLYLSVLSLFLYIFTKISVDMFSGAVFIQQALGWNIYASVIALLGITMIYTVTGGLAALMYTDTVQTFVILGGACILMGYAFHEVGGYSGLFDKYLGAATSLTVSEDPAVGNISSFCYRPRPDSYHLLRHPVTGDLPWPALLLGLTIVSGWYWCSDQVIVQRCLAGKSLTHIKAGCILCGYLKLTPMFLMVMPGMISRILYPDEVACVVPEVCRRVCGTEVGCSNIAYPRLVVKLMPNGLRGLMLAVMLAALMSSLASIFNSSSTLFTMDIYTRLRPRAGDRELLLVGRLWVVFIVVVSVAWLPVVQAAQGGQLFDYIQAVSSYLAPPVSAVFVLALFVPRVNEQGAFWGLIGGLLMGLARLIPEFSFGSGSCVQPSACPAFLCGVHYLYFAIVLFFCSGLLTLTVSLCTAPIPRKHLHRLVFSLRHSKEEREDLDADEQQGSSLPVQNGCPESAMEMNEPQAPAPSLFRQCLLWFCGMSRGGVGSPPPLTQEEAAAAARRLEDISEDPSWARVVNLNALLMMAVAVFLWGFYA
T4 sequence (Q13113 1-114 partner): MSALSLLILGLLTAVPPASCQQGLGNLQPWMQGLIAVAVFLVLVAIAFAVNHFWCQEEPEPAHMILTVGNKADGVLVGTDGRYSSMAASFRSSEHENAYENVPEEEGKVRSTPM
Method: as §1, §3

[5] = molecular target: T5, hSGLT1 D268H (Homo sapiens, UniProt P13866, D268H); experiment: SGLT current measurement in oocytes, hSGLT1 D268H; assay type: cell-based; conditions: D268H vs wild type
T5 construct: expressed in transfected cells; host or cells: Xenopus laevis oocytes injected with cRNA
T5 sequence (P13866 1-664 D268H): T1 sequence (P13866 1-664) with D268H
Method: as §1, §2

[6] = molecular target: T4, hSGLT2 wild-type; conditions: cited from earlier work

Row | Compound | Ki [1] | Ki [2] | Ki [3] | Ki [4] | decrease of Ki vs wild-type hSGLT1 [5] | higher potency for hSGLT2 (vs hSGLT1) [6]
1 | CCOc1ccc(Cc2cc(O)ccc2Cl)cc1 [dapa-aglycon] | 425 ± 50 µM | 187 ± 80 µM | > 600 µM | 110 ± 30 µM | – | –
2 | CCOc1ccc(Cc2cc([C@@H]3O[C@H](CO)[C@@H](O)[C@H](O)[C@H]3O)ccc2Cl)cc1 [dapagliflozin] | – | – | – | – | 13 fold | > 100 fold
3 | O=C(CCc1ccc(O)cc1)c1c(O)cc(O)cc1O [phloretin] | – | – | 129 ± 70 µM | 27 ± 3 µM | – | –
